Experimental data taken from patent publication US20220202739A1, “ENDOCANNABINOID MIMETIC AND ANTI-INFLAMMATORY COMPOUND CONTAINING COMPOSITIONS, METHODS OF PREPARATION AND USES THEREOF” (priority 2019, published 2022).
Read-outs that look alike come from different tables or passages of the source.

Tests used:
Format in all cases: cell-based
TRPA1 = experiment: Gene expression custom microarray, human skin fibroblasts (Example 1): TRPA1; conditions: for fold induction at 10 µM: Skin fibroblast, read-out: TRPA1↑ gene expression, fold increase or decrease vs untreated cells
Text: (§1) Cell cultures: A human skin fibroblast cell culture (or cultures) was obtained through the Coriell Cell Repository from the National Institute on Aging Cell Repository (Camden, N.J.), or Promocell GmbH (Heidelberg, Germany). The initial culture was selected from the following cell lines: AG13066, AG11557, AG11796 or GM03651E. The cell lines were derived from donors as follows:
(§2) Experimental phase: When the appropriate quantity of cells had been grown, they were detached as described above, but at the final step were seeded into each well of one or more 6 well dishes. Each well received 2 ml of the cell suspension so they were seeded equally. The dishes were returned to the incubator until 85-95% confluency was reached.
(§3) It is at this stage that all wells were rinsed in PBS after aspirating the growth media. The compound(s) to be tested were previously mixed into a suitable solvent (e.g., DMSO or ethanol) that can be diluted to the desired concentration of test compound (10 μl) in the culture wells without exceeding maximum solvent concentrations and adversely effecting cell viability, and mixed with basal media. NOTE: Standard maximum levels of solvent are 0.1% for DMSO and 0.5% for ETOH. The concentration of each test compound is found in Tables 1 & 2.
(§4) Every 2 wells on the 6 well plate served as a biological replicate for the purposes of RNA isolation and genetic expression evaluations making each 6 well dish an n=3 for the test compound(s) contained in the media. Negative control plates (no test compound(s) and only basal media) were also generated. The plates were returned to the incubator for 24 hrs.
(§5) At the end of the 24 hr time period, the plates were removed from the incubator, the test media aspirated, and the cells rinsed with PBS. RNA isolation is performed using the BioRad Aurum Total RNA Mini Kit (Hercules, Calif.) per manufacturer's protocol; which is described, in brief, below: • Add 350 μl of lysis buffer to each well. Pipet multiple times to ensure thorough lysis. Add lysed cells to the collection tube. • Add 350 μl of 70% ETOH to the collection tube and mix thoroughly. • Pipet the generated lysate onto the spin column placed in a new 2 ml tube. Centrifuge for 30 sec between 8,000 and 10,000 g. • Place the spin column containing the now bound RNA, in a new 2 ml tube. Add 700 μl of low stringency wash solution to the spin column. Centrifuge for 30 sec between 8,000 and 10,000 g. Discard the flow through and replace spin column. • Add 80 μl of DNase I dilution to the spin column and incubate at room temperature for 15 minutes. • Add 700 μl of high stringency wash solution to the column and centrifuge for 30 sec between 8,000 and 10,000 g. Discard flow through. • Add 700 μl of low stringency wash solution to the column and centrifuge for 60 sec between 8,000 and 10,000 g. Discard flow through. • Centrifuge for 2 minutes to remove residual wash solution. • Transfer spin column to new 1.5 ml collection tube and add 80 μl of elution solution to the column. Allow 1 minute for saturation of the membrane and then centrifuge for 2 minutes to complete the RNA elution. • Quantify the quantity of RNA and store at −20 C° until use (no more than 1 month)
(§6) The genes tested were: • Cannabinoid receptor 1 (CB1(CNR1)) • Cannabinoid receptor 2 (CB2 (CNR2)) • Fatty acid amide hydrolase (FAAH) • Monoacylglycerol lipase (MGLL, i.e., MAGL) • Peroxisome proliferator-activated receptor gamma (PPARG) • Nuclear factor kappa-light-chain-enhancer of activated B cells (NFκβ) • Interleukin 1 Alpha (IL1alpha) • Cyclooxygenase 1 (PTGS1, i.e., COX1) • Transient receptor potential cation channel subfamily A member 1 (TRPA1) • Transient receptor potential cation channel subfamily V member 1 (TRPV1) • Transient receptor potential cation channel subfamily M member 8 (TRPM8) • Hemoglobin Subunit Beta (HBB) REFERENCE GENE • Ribosomal Protein L13a (RPL13A) REFERENCE GENE […]

IL1A = experiment: Gene expression custom microarray, human skin fibroblasts (Example 1): IL1A; conditions: 24 hr; for IL1A↓ gene expression, fold increase or decrease vs untreated cells: 10 uM; for fold induction at 10 µM: Skin fibroblast, read-out: IL1A↓ gene expression, fold increase or decrease vs untreated cells
Text: as §1, §2, §3, §4, §5, §6

CNR2 = experiment: Gene expression custom microarray, human skin fibroblasts (Example 1): CNR2; conditions: human skin fibroblasts, 10 uM, 24 hr; for fold induction at 10 µM: Skin fibroblast, read-out: CNR2↑ gene expression, fold increase or decrease vs untreated cells
Text: as §1, §2, §3, §4, §5, §6

MAGL = experiment: Gene expression custom microarray, human skin fibroblasts (Example 1): MAGL; conditions: for fold induction at 10 µM: Skin fibroblast, read-out: MAGL↓ gene expression, fold increase or decrease vs untreated cells
Text: as §1, §2, §3, §4, §5, §6

TRPV1 = experiment: Gene expression custom microarray, human skin fibroblasts (Example 1): TRPV1; conditions: 10 uM, 24 hr
Text: as §1, §2, §3, §4
At the end of the 24 hr time period, the plates were removed from the incubator, the test media aspirated, and the cells rinsed with PBS. RNA isolation is performed using the BioRad Aurum Total RNA Mini Kit (Hercules, Calif.) per manufacturer's protocol; which is described, in brief, below: • Add 350 μl of lysis buffer to each well. Pipet multiple times to ensure thorough lysis. Add lysed cells to the collection tube. • Add 350 μl of 70% ETOH to the collection tube and mix thoroughly. • Pipet the generated lysate onto the spin column placed in a new 2 ml tube. Centrifuge for 30 sec between 8,000 and 10,000 g. • Place the spin column containing the now bound RNA, in a new 2 ml tube. Add 700 μl of low stringency wash solution to the spin column. Centrifuge for 30 sec between 8,000 and 10,000 g. […] Allow 1 minute for saturation of the membrane and then centrifuge for 2 minutes to complete the RNA elution. • Quantify the quantity of RNA and store at −20 C° until use (no more than 1 month) […]

FAAH = experiment: Gene expression custom microarray, human skin fibroblasts (Example 1): FAAH; conditions: for fold induction at 10 µM: Skin fibroblast, read-out: FAAH↓ gene expression, fold increase or decrease vs untreated cells
Text: as §1, §2, §3, §4, §5, §6

PPARG = experiment: Gene expression custom microarray, human skin fibroblasts (Example 1): PPARG; conditions: for fold induction at 10 µM: Skin fibroblast, read-out: PPARG↑ gene expression, fold increase or decrease vs untreated cells
Text: as §1, §2
(§7) It is at this stage that all wells were rinsed in PBS after aspirating the growth media. The compound(s) to be tested were previously mixed into a suitable solvent (e.g., DMSO or ethanol) that can be diluted to the desired concentration of test compound (10 μl) in the culture wells without exceeding maximum solvent concentrations and adversely effecting cell viability, and mixed with basal media. NOTE: Standard maximum levels of solvent are 0.1% for DMSO and 0.5% for ETOH.
as §4, §5
(§8) The genes tested were: • Cannabinoid receptor 1 (CB1(CNR1)) • Cannabinoid receptor 2 (CB2 (CNR2)) • Fatty acid amide hydrolase (FAAH) • Monoacylglycerol lipase (MGLL, i.e., MAGL) • Peroxisome proliferator-activated receptor gamma (PPARG) • Nuclear factor kappa-light-chain-enhancer of activated B cells (NFκβ) • Interleukin 1 Alpha (IL1alpha) • Cyclooxygenase 1 (PTGS1, i.e., COX1) • Transient receptor potential cation channel subfamily A member 1 (TRPA1) • Transient receptor potential cation channel subfamily V member 1 (TRPV1) • Transient receptor potential cation channel subfamily M member 8 (TRPM8) • Hemoglobin Subunit Beta (HBB) REFERENCE GENE • Ribosomal Protein L13a (RPL13A) REFERENCE GENE

CNR1 = experiment: Gene expression custom microarray, human skin fibroblasts (Example 1): CNR1; conditions: for fold induction at 10 µM: Skin fibroblast, read-out: CNR1↑ gene expression, fold increase or decrease vs untreated cells
Text: as §1, §2, §3, §4, §5, §6

PTGS1 = experiment: Gene expression custom microarray, human skin fibroblasts (Example 1): PTGS1; conditions: for fold induction at 10 µM: Skin fibroblast, read-out: PTGS1↓ gene expression, fold increase or decrease vs untreated cells
Text: as §1, §2, §3, §4, §5, §6

NFKB1 = experiment: Gene expression custom microarray, human skin fibroblasts (Example 1): NFKB1; conditions: for fold induction at 10 µM: Skin fibroblast, read-out: NFKB1↓ gene expression, fold increase or decrease vs untreated cells
Text: as §1, §2, §7, §4, §5, §8

TRPM8 = experiment: Gene expression custom microarray, human skin fibroblasts (Example 1): TRPM8; conditions: 24 hr; for TRPM8↑ gene expression, fold increase or decrease vs untreated cells: 10 uM; for fold induction at 10 µM: Skin fibroblast, read-out: TRPM8↑ gene expression, fold increase or decrease vs untreated cells
Text: as §1, §2, §3, §4, §5, §6

[1] = human skin fibroblasts, 10 uM, 24 hr

SMILES	fold induction at 10 µM (TRPA1; [1])	fold induction at 10 µM (IL1A)	fold induction at 10 µM (CNR2)	fold induction at 10 µM (FAAH; [1])	fold induction at 10 µM (PPARG; [1])	fold induction at 10 µM (TRPM8)	fold induction at 10 µM (MAGL; [1])	fold induction at 10 µM (PTGS1; [1])	fold induction at 10 µM (NFKB1; [1])	other results
CCCCCCCC/C=C\CCCCCCCC(=O)NCCO [N-Oleylethanolamide]										TRPA1↑ gene expression, fold increase or decrease vs untreated cells (TRPA1; [1]): 1.1 fold; IL1A↓ gene expression, fold increase or decrease vs untreated cells (IL1A): −1.9 fold; CNR2↑ gene expression, fold increase or decrease vs untreated cells (CNR2): −2.4 fold; MAGL↓ gene expression, fold increase or decrease vs untreated cells (MAGL; [1]): 2.5 fold; TRPV1↑ gene expression, fold increase or decrease vs untreated cells (TRPV1): −1.6 fold; FAAH↓ gene expression, fold increase or decrease vs untreated cells (FAAH; [1]): −1.1 fold; PPARG↑ gene expression, fold increase or decrease vs untreated cells (PPARG; [1]): 2.4 fold; CNR1↑ gene expression, fold increase or decrease vs untreated cells (CNR1; [1]): −1.9 fold; PTGS1↓ gene expression, fold increase or decrease vs untreated cells (PTGS1; [1]): 1.5 fold; NFKB1↓ gene expression, fold increase or decrease vs untreated cells (NFKB1; [1]): 1.5 fold; TRPM8↑ gene expression, fold increase or decrease vs untreated cells (TRPM8): −1.4 fold
O=c1cc(-c2ccccc2)oc2cc(O)ccc12 [7-Hydroxyflavone]										fold induction at 10 µM (MAGL; Homo sapiens, 24 h): 2; fold induction at 10 µM (FAAH; Homo sapiens, 24 h): 1.2; fold induction at 10 µM (PPARG; Homo sapiens, 24 h): 1.4; fold induction at 10 µM (PTGS1; Homo sapiens, 24 h): 1.4; fold induction at 10 µM (NFKB1; Homo sapiens, 24 h): 1.1
C[C@@H]1C(=O)O[C@H]2[C@H](O)[C@@]34[C@H]5C[C@@H](C(C)(C)C)[C@]36[C@@H](OC(=O)[C@@H]6O)O[C@@]4(C(=O)O5)[C@@]12O [Ginkolide, Ginkolide B]										TRPA1↑ gene expression, fold increase or decrease vs untreated cells (TRPA1; [1]): 1.1 fold; IL1A↓ gene expression, fold increase or decrease vs untreated cells (IL1A): −3.3 fold; CNR2↑ gene expression, fold increase or decrease vs untreated cells (CNR2): −1.2 fold; MAGL↓ gene expression, fold increase or decrease vs untreated cells (MAGL; [1]): 2.3 fold; TRPV1↑ gene expression, fold increase or decrease vs untreated cells (TRPV1): −2.6 fold; FAAH↓ gene expression, fold increase or decrease vs untreated cells (FAAH; [1]): −1.1 fold; PPARG↑ gene expression, fold increase or decrease vs untreated cells (PPARG; [1]): −1.3 fold; CNR1↑ gene expression, fold increase or decrease vs untreated cells (CNR1; [1]): 1.1 fold; PTGS1↓ gene expression, fold increase or decrease vs untreated cells (PTGS1; [1]): −1.3 fold; NFKB1↓ gene expression, fold increase or decrease vs untreated cells (NFKB1; [1]): −1.2 fold; TRPM8↑ gene expression, fold increase or decrease vs untreated cells (TRPM8): 2.1 fold
C=CCc1ccc(O)c(OC)c1 [Eugenol]	30.1	39.2	109	3	1.6	152				fold induction at 10 µM (CNR1; [1]): 148
COC(=O)c1ccccc1O [Methyl Salicylate, reference compound]	3				1.8		2.4	1.4	1.9	
CC(C)=CCC[C@](C)(O[C@@H]1O[C@H](CO[C@@H]2O[C@@H](CO)[C@H](O)[C@H]2O)[C@@H](O)[C@H](O)[C@H]1O)[C@H]1CC[C@]2(C)[C@@H]1[C@H](O)C[C@@H]1[C@@]3(C)CC[C@H](O[C@@H]4O[C@H](CO)[C@@H](O)[C@H](O)[C@H]4O[C@@H]4O[C@H](CO)[C@@H](O)[C@H](O)[C@H]4O)C(C)(C)[C@@H]3CC[C@]12C [Ginsenoside, ginsenoside RC]								7.9	1.8	fold induction at 10 µM (TRPA1; Homo sapiens, 24 h): 1.5
COc1cc(/C=C/C(=O)CC(=O)/C=C/c2ccc(O)c(OC)c2)ccc1O [Curcumin]	4.9	4.9	55.4	1.8		47.9			1.1	fold induction at 10 µM (CNR1; [1]): 47.4
CC1CCC(C(C)C)C(O)C1 (centres unmarked) [Menthol, reference compound]	2.5			2	1.8		2.7	7.8	3.4	
C=CCc1ccc(O)c(-c2ccc(O)c(CC=C)c2)c1 [Honokiol]	1.4	1.8	1.3	2.3	2.3	1.8	2.7	1.5	1.6	fold induction at 10 µM (CNR1; Homo sapiens, 24 h): 1.2
